Laboratory results taken from PMC4671066, “Characterization of the 26S proteasome network in Plasmodium falciparum” (Scientific Reports, 2015).

What was measured:
[1] = target: T1, PfUSP14 (PFE1355c, ubiquitin carboxyl-terminal hydrolase, putative) (Plasmodium falciparum, UniProt Q8I3J3); assay: concentration-dependent inhibition of recombinant PfUSP14 deubiquitinase activity; format: biochemical
T1 construct: gene PF3D7_0527200; recombinant hexahistidyl-tagged PfUSP14
T1 sequence (Q8I3J3 1-605): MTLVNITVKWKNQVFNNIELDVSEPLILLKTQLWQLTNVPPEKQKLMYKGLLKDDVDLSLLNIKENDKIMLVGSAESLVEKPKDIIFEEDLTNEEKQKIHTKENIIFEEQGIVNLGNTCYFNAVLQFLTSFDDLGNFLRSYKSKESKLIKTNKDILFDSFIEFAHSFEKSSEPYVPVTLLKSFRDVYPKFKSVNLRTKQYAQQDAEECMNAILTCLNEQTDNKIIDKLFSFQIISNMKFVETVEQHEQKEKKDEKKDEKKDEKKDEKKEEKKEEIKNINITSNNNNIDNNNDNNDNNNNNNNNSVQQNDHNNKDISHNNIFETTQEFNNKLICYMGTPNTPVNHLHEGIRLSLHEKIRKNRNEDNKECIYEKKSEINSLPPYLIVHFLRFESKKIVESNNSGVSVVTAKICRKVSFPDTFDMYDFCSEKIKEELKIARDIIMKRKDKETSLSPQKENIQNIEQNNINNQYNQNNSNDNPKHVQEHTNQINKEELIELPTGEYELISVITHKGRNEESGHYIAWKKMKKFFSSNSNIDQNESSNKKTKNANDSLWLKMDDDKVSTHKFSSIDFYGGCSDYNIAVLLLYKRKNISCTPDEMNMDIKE

[2] = target: T2, P. falciparum 26S proteasome, β5 subunit (chymotrypsin-like activity) (Plasmodium falciparum, UniProt Q8IJT1); format: biochemical
T2 construct: gene PF3D7_1011400; with other 20S and 19S proteasome subunits
T2 sequence (Q8IJT1 61-271): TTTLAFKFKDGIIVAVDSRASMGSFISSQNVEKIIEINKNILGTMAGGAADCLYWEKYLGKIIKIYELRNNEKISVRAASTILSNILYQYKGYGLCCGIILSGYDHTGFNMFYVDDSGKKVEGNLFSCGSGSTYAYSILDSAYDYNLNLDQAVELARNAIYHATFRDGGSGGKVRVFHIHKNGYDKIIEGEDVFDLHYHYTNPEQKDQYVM
T2 sequence (A0A5K1K7U1 39-240 partner): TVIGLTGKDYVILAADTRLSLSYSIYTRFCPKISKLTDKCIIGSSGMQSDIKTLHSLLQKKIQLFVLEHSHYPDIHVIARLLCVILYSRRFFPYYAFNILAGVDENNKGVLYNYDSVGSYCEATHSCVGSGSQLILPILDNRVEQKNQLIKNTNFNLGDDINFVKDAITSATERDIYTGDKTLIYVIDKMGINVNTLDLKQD

Row | SMILES | IC50 [1] [µM] | fluorogenic peptide (Suc-LLVY-AMC) cleavage by purified proteasome, inhibitor at [2]
1 | C=CC(=O)N1C/C(=C\c2ccc([N+](=O)[O-])cc2)C(=O)/C(=C/c2ccc([N+](=O)[O-])cc2)C1 [b-AP15] | 11.3 ± 4.7 | –
2 | CC(=O)N[C@@H](CSC(=O)[C@]1([C@@H](O)C(C)C)NC(=O)[C@H](C)[C@@H]1O)C(=O)O [lactacystin] | – | the respective proteolytic activities were shown to be inhibited by the proteasome inhibitors MG132 and lactacystin
